Source: ChEMBL document CHEMBL1201862, “PubChem BioAssay data set” (2004)
Active and inactive are the calls of the source. Cut-off read from the data, not from the text of the source, for most assays here: actives have a measured EC50 and inactives only a lower limit.

How the values were obtained:
[1] = alpha-synuclein stem-loop luciferase translation blockers – H4 neuroglioma cells, luminescence, confirmation (AID 1988); type: functional, cell-based
[2] = Luminescence Cell-Based Dose Response HTS to Identify Inhibitors of 5'UTR Stem-Loop Driven Prion Protein mRNA Translation in H4 Neuroglioblastoma Cells. [Related pubchem assays: 1827 (Project Summary), 1813 (Primary HTS)]; type: functional
[3] = luciferase reporter signal suppression in cells – H4 neuroglioma cells, luminescence, dose response (AID 1990); type: functional, cell-based
[4] = target: Cytochrome P450 2C9 (Homo sapiens, UniProt P11712)
[5] = target: Cytochrome P450 3A4 (Homo sapiens, UniProt P08684);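 note: CYP3A4 tested as one member of a cytochrome P450 panel screen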
[6] = target: T1, Cytochrome P450 1A2 (Homo sapiens, UniProt P05177);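 note: PubChem cytochrome P450 panel assay, CYP1A2 panel member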
T1 sequence (P05177 whole entry): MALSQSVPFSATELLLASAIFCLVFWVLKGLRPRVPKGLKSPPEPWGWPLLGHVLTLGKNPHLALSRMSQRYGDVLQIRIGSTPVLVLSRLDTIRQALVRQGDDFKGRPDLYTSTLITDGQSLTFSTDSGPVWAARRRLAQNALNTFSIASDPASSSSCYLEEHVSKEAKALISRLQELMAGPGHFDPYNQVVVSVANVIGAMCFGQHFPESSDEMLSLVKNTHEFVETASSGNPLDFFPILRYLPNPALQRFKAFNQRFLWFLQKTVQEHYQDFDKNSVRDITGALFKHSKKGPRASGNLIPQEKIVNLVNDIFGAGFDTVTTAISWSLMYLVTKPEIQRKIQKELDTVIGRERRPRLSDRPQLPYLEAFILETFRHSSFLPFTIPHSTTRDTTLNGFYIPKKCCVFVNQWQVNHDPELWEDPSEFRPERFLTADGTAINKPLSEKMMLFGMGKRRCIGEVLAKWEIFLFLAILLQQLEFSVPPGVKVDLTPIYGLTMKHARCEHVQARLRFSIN

[7] = target: T2, Heat shock factor protein 1 (Mus musculus, UniProt P38532); assay: decrease of HSF1-responsive luciferase luminescence – cell-based, NIH3T3, dose retest, confirmation (AID 2382); type: functional;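 note: NIH3T3 fibroblasts with HSF1-driven luciferase reporter stressed by proteasome inhibitor MG132; luminescence from HSF1-driven luciferase expression after 8 hours of MG132 stress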
T2 sequence (P38532 whole entry): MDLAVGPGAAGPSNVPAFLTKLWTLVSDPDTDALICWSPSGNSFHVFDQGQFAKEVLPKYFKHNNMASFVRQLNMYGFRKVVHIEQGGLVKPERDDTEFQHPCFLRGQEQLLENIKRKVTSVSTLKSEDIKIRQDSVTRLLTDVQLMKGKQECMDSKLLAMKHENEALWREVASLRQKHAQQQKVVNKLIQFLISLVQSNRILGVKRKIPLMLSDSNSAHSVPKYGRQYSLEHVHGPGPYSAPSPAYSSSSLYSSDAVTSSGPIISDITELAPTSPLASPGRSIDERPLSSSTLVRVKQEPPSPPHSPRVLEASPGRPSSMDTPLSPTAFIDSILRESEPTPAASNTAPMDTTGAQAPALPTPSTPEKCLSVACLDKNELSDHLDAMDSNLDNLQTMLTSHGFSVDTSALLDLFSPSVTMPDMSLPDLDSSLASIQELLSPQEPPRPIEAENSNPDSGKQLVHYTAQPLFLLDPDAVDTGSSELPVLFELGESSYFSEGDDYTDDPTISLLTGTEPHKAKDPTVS

[8] = tested on: INS1; assay: INS-1E survival protection against cytokine death – cell-based, luminescence, retest, dose response (AID 449756); type: functional; conditions: Rattus norvegicus;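 note: cell death triggered by IL-1 beta plus TNF-alpha plus IFN-gamma mixture; protective hits raise ATP signal compared with cytokine alone wells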
[9] = Trypanosoma cruzi growth suppression in host cells – NIH3T3 host cells, beta-gal luminescence, confirmation (AID 2044); type: functional, cell-based;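 note: intracellular parasites grown in NIH/3T3 mouse fibroblasts as host cells; luminescent beta-galactosidase reporter signal from transgenic T. cruzi replicating inside host cells; inhibitors lower the luminescence signal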
[10] = NIH3T3 cell viability loss – ATP luminescence, mouse fibroblasts, counter-screen, dose response (AID 2010); type: functional, cell-based;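 note: cells exposed to compound for about 90 hours before reading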
[11] = Luminescence Cell-Based Dose Retest to Confirm Inhibitors of Cancer Stem Cells. [Related pubchem assays (depositor defined):AID2717, AID2721]; type: functional; conditions: Homo sapiens
[12] = tested on: Streptococcus sp. 'group A'; assay: Streptococcus pyogenes SK(-)GAS viability under kanamycin – luminescence, BacTiterGlo, confirmation, counter-screen for streptokinase expression inhibitor project, dose response (AID 1900); type: functional, organism-based
[13] = tested on: Streptococcus; assay: GAS UMAA2166 growth inhibition – luminescence, BacTiterGlo, counter-screen for streptokinase expression inhibitor project, dose response (AID 1915); type: functional, organism-based;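 note: potency for reduction of bacterial viability or growth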
[14] = target: T3, Streptokinase A (Streptococcus pyogenes serotype M1, UniProt P10520); assay: viability-normalized secreted streptokinase activity reduction – plasminogen activation absorbance, OD405, dose response (AID 1914); type: functional, Streptococcus pyogenes M1 GAS;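 note: secreted streptokinase activity via plasminogen activation per viability signal from cell pellet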
T3 sequence (P10520 whole entry): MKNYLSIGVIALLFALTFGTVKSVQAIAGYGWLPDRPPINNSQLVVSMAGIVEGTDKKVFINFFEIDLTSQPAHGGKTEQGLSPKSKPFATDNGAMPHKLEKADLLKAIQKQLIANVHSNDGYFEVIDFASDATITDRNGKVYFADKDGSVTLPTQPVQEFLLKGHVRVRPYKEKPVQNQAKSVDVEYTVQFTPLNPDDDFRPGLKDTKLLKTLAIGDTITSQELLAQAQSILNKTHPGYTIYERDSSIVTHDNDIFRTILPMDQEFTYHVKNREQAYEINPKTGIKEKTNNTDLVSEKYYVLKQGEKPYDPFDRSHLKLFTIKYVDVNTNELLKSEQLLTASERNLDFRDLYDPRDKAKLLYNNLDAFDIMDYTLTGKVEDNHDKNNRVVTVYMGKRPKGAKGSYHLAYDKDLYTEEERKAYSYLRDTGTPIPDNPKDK

Chain of Cytochrome P450 3A4 (P08684 whole entry): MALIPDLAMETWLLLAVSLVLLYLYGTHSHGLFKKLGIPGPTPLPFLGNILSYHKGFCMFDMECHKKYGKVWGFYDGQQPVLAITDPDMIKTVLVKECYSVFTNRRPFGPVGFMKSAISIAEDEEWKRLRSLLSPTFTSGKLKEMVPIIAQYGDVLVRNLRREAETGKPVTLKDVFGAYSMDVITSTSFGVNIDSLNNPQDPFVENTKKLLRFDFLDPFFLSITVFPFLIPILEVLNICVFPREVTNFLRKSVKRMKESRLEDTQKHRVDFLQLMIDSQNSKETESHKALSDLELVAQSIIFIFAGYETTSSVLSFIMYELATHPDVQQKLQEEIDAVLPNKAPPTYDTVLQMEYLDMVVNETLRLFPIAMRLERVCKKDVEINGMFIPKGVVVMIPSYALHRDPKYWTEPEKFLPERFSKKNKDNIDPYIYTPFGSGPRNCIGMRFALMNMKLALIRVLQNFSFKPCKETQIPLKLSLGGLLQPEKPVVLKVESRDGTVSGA
Chain of Cytochrome P450 2C9 (P11712 whole entry): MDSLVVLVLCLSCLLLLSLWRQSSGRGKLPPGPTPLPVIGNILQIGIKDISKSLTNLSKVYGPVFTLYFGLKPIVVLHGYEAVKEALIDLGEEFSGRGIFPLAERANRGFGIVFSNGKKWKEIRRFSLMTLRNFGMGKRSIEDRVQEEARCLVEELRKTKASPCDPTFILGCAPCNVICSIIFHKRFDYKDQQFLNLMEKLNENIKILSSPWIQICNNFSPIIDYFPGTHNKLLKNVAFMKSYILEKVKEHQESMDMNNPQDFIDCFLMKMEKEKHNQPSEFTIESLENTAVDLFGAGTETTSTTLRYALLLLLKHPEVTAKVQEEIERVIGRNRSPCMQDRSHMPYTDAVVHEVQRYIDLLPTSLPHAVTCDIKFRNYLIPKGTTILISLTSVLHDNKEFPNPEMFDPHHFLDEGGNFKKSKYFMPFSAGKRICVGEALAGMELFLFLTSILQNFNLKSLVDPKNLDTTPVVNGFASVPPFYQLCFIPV

CCOC(=O)c1cc(CC)sc1NC(=O)CSc1nc2ccccc2c(=O)n1Cc1ccco1
EC50 [1]: 17.8 µM (active) | EC50 [2]: > 120 µM (not active) | EC50 [3]: > 120 µM (not active)

COc1ccc(-n2c(=O)c(-c3cccs3)nc3cnc(N4CCOCC4)nc32)cc1
AC50 [4]: 20 µM (inconclusive) | AC50 [5]: 20 µM (inconclusive) | AC50 [6]: 12.6 µM (inconclusive)

O=[N+]([O-])c1ccccc1Nc1cccnc1
EC50 [7]: > 195 µM (not active)

Cc1ccc(S(=O)(=O)N2CCCCC2c2cccnc2)c(C)c1C (stereo not drawn)
AC50 [8]: 57.2 µM (active)

CCC(c1nnnn1CCc1ccccc1)N(Cc1ccco1)Cc1cc2c(C)ccc(C)c2nc1O (stereo not drawn)
EC50 [9]: 1.41 µM (active) | EC50 [1]: > 120 µM (not active) | EC50 [2]: > 120 µM (not active) | EC50 [10]: > 60 µM (not active) | EC50 [3]: > 120 µM (not active)

CC/C(NCc1cc(OC)cc(OC)c1)=C1/C(=O)NC(=O)N(C2CCCCC2)C1=O
EC50 [1]: 27.2 µM (active) | EC50 [2]: > 120 µM (not active) | EC50 [3]: 16 µM (active)

O=C1N=C(N2CCCC2)S/C1=C\C=C\c1ccccc1
EC50 [7]: < 0.16 µM (active)

CC(=O)NCCNc1ccnc(-c2ccccc2C(F)(F)F)n1
AC50 [5]: 15.8 µM (inconclusive) | AC50 [6]: 15.8 µM (inconclusive)

CC1CC(C)CN(C(=O)c2ccc(CSc3nc4cc[nH]cc-4n3)cc2)C1 (stereo not drawn)
EC50 [7]: > 195 µM (not active)

CC(=O)N=C(Nc1ccc2ccccc2c1)Nc1nc(C)cc(C)n1
EC50 [7]: 146 µM (active)

Cc1cc(=O)oc2c(OS(C)(=O)=O)c(OS(C)(=O)=O)ccc12
AC50 [6]: 0.794 µM (inconclusive)

CC(C)CNc1nc(N)c([N+](=O)[O-])c(NCC2CCCO2)n1 (stereo not drawn)
EC50 [1]: > 120 µM (not active) | EC50 [2]: 4.6 µM (active) | EC50 [3]: 13.5 µM (active)

CCCCC(=O)Nc1ccc(C(=O)NCCc2ccc(S(N)(=O)=O)cc2)cc1
EC50 [7]: > 195 µM (not active)

CC1(C)CC(=O)C(C(c2cccnc2)C2C(=O)CC(C)(C)CC2=O)C(=O)C1
EC50 [7]: > 195 µM (not active)

COc1ccc(S(=O)(=O)N2CCCN(CCC(=O)Nc3cccc(C(F)(F)F)c3)CC2)cc1
AC50 [4]: 39.8 µM (inconclusive) | AC50 [5]: 39.8 µM (inconclusive) | AC50 [6]: 15.8 µM (inconclusive)

CCC(=O)Nc1cc(-c2nn(CC(=O)N3CCCCC3)c(=O)c3ccccc23)ccc1N1CCOCC1
EC50 [7]: > 195 µM (not active)

CCOC(=O)c1ccc2ncc(C(C)=O)c(O)c2c1
EC50 [7]: > 195 µM (not active)

CC(=O)c1cccc(NC(=O)CSc2ccc(-c3ccccn3)nn2)c1
EC50 [1]: > 120 µM (not active) | EC50 [2]: 14.6 µM (active) | EC50 [3]: > 120 µM (not active)

COc1ccccc1-c1nnc(SCC(=O)N2CC(C)CC(C)C2)o1 (stereo not drawn)
EC50 [1]: > 120 µM (not active) | EC50 [2]: > 120 µM (not active) | EC50 [3]: > 120 µM (not active)

O=C(OC(C(=O)NCC1CCCO1)c1ccc(F)cc1)c1cccs1 (stereo not drawn)
EC50 [7]: > 195 µM (not active)

O=C(NC1CCCCC1)C1CCN(C(=O)c2ccc(-c3ccccc3)cc2)CC1
EC50 [1]: 77.5 µM (active) | EC50 [2]: > 120 µM (not active) | EC50 [3]: > 120 µM (not active)

COc1ccccc1-c1nc(NCCNC(C)=O)c2ccccc2n1
AC50 [6]: 15.8 µM (inconclusive)

CCOC(=O)CCCNS(=O)(=O)c1c(C)ccc2nsnc12
EC50 [7]: 53.4 µM (active)

CN(C)C(=O)c1ccc(NC(=O)c2cccnc2)cc1
AC50 [8]: 6.14 µM (active)

COc1ccc(C(O)c2nccn2Cc2ccccc2)cc1 (stereo not drawn)
AC50 [6]: 6.31 µM (inconclusive)

O=C(CN1CCN(c2ccc(O)cc2)CC1)Nc1cc(S(=O)(=O)N2CCCC2)ccc1Cl
EC50 [7]: > 195 µM (not active)

Cc1cccc(N2CC(=O)C(c3nc4ccccc4n3C)=C2N)c1
AC50 [6]: 14.1 µM (inconclusive)

CCNc1ncc2nc(CCc3ccccc3)c(=O)n(Cc3cccc(OC)c3)c2n1
AC50 [6]: 12.6 µM (inconclusive)

c1nc(NCCc2c[nH]cn2)c2nc[nH]c2n1
AC50 [5]: 3.98 µM (inconclusive) | AC50 [6]: 5.01 µM (inconclusive)

Cn1nnc2cc(C(=O)NC(C)(C)C)ccc21
EC50 [7]: 83.9 µM (active)

NC(CC(=O)Nc1ccc(F)cc1)=NO
EC50 [7]: > 195 µM (not active)

O=C(CNS(=O)(=O)c1ccccc1F)Nc1ccc(N2CCOCC2)cc1
EC50 [7]: > 195 µM (not active)

OCCCn1c(CCNc2nc(-c3ccc(Cl)cc3)cs2)nc2cc(C(F)(F)F)ccc21
AC50 [11]: 23.9 µM (active)

COC(=O)[C@H](CC(C)C)N(Cc1ccccc1)S(=O)(=O)N(Cc1ccc(OC)cc1)[C@@H](CC(C)C)C(=O)OC
AC50 [8]: 5.77 µM (active)

CN1CCN(C(=O)O[C@@H]2c3nccnc3C(=O)N2c2ccc(Cl)cn2)CC1
AC50 [6]: 39.8 µM (inconclusive)

C=CCn1c(CNc2ccccc2)nnc1SCC(=O)N/N=C/c1ccccc1O
EC50 [1]: > 120 µM (not active) | EC50 [2]: > 120 µM (not active) | EC50 [3]: 18.3 µM (active)

C/C(=N\NC(=O)c1ccc(C)cc1)c1c(C)nn(-c2ccccc2)c1O
EC50 [12]: 3.96 µM (active) | AC50 [8]: 3.15 µM (active) | EC50 [13]: 14.7 µM (active) | EC50 [14]: > 150 µM (not active)

O=S(=O)(/N=C(/c1ccccc1Cl)N1CCOCC1)c1ccccc1
EC50 [7]: > 195 µM (not active)

NS(=O)(=O)c1ccc(N/N=C2/CCCCC2C2CCCCC2)c([N+](=O)[O-])c1 (stereo not drawn)
EC50 [12]: 3.34 µM (active) | AC50 [8]: 7.29 µM (active) | EC50 [13]: 7.18 µM (active) | EC50 [14]: 7.92 µM (inconclusive)

NC(=S)N/N=C/c1cc([N+](=O)[O-])ccc1OCCOc1ccccc1
EC50 [7]: 52.6 µM (active)

CCOC(=O)N/N=C\c1ccc(C)s1
EC50 [7]: > 195 µM (not active)

CC(=O)N1CCN(C)CC1
AC50 [6]: 31.6 µM (inconclusive)

CCOC(=O)c1ncn2c1CN(C)C(=O)c1cc(F)ccc1-2 [FLUMAZENIL]
AC50 [6]: 39.8 µM (inconclusive)
